system: Plasmodium falciparum; assay: MMV: Compounds (1uM) were screened in a 72hr growth assay monitored by flow cytometry both in the presence and absence of supplemental isopentenyl pyrophosphate (IPP) 200uM. Compounds which fail to show anti-malarial activity when chemically rescued by IPP are therefore specific to the apicoplast. The values are expressed as the ratio of the corresponding activity with and without IPP, respectively.; format: functional, W2

SMILES | Ratio
O=C(Nc1ccc(Cl)c(Cl)c1)Nc1ccc(Cl)c(Cl)c1 | 1.022
COc1ccc(Nc2nc(N/N=C/c3ccc(O)cc3)nc(Nc3ccc([N+](=O)[O-])cc3)n2)cc1 | 1.812
COc1ccc(-c2cc3c(nn2)-c2ccccc2C3=O)cc1 | 1.105
COc1ccc(C2c3ccc4ccccc4c3Oc3ncn(CCCN(C)C)c(=N)c32)cc1 (configuration not stated) | 1.078
N=c1n(CCN2CCCCC2)c2ccccc2n1CC(=O)c1ccc(Cl)c(Cl)c1 | 1.14
Nc1nc(Nc2cccc(F)c2)nc2ccccc12 | 1.176
COc1ccc(/C=C2/SC(=Nc3ccccc3)NC2=O)cc1 | 1.136
c1ccc(/C2=N/c3ccccc3/N=C(/c3ccccc3)c3ccccc32)cc1 | 0.807
COc1ccc(-c2nc(N3CCN(C(=O)C4CCCCC4)CC3)c3c4c(sc3n2)CCCC4)cc1 | 1.015
O=C(NC1CCN(Cc2ccccc2)CC1)c1cc2nc(-c3ccc(Cl)s3)cc(C(F)(F)F)n2n1 | 0.6993
Cc1sc(NC(=O)c2ccccc2)c(C(c2cccs2)N2CCN(c3ccccc3)CC2)c1C (configuration not stated) | 0.9412
Cc1sc(NC(=O)c2ccco2)c(C(c2cccnc2)N2CCC(Cc3ccccc3)CC2)c1C (configuration not stated) | 1.123
CCOC(=O)c1c(C)n(-c2ccccc2)c2ccc(OC(=O)c3cc(OC)c(OC)c(OC)c3)cc12 | 0.9
COc1cc(C(=O)Nc2nc3c(cc4c5c(cccc53)CC4)s2)cc(OC)c1OC | 0.8259
COc1ccc(CCN2C(=O)c3[nH]nc(-c4cc(Cl)c(C)cc4O)c3C2c2ccccc2F)cc1 (configuration not stated) | 0.7742
N#Cc1nc(Cc2cccc3ccccc23)oc1N1CCN(C(c2ccccc2)c2ccccc2)CC1 | 1.062
O=C(NNc1cc(N2CCCC2)nc(N2CCCC2)n1)c1ccccc1 | 0.9508
COC(=O)c1ccc(Cl)c2c1C1C=CCC1C(c1cccc3ccccc13)N2 (configuration not stated) | 1.081
COc1ccc(C2c3ccc4ccccc4c3Oc3ncn(CCCn4ccnc4)c(=N)c32)cc1OC (configuration not stated) | 1.051
CN(N=O)C1=C(NC2CCCCC2)C(=O)c2ccccc2C1=O | 1.071
O=C(CCc1ccccc1)c1ccccc1OCC(O)CN1CCCCC1 (configuration not stated) | 1
OC1=C2C(=Nc3ccccc3SC2c2ccccc2)c2ccccc21 (configuration not stated) | 1.213
COc1cc(C(=O)Nc2ccc(-c3nc4ccccc4[nH]3)cc2)cc(OC)c1OC | 0.6522
CCOc1ccc(N2C(N)=NC(N)=NC2(C)C)cc1.Cl | 0.7815
COc1cccc(Nc2nc(N)c3ccccc3n2)c1.Cl | 0.9815
Cc1ccc(C(=O)c2oc3ccc4c(C)cc(=O)oc4c3c2C)cc1 | 1.018

SMILES | Ratio
COc1ccc(CN2CCCC(C(=O)c3ccc(C(F)(F)F)cc3)C2)c(O)c1 (configuration not stated) | 0.8852
COC(=O)c1ccc(C2C3=C(O)CC(c4ccc(F)cc4)CC3=Nc3ccccc3N2C(=O)c2ccccc2)cc1 (configuration not stated) | 0.9016
CCCCCCc1cc2cc(-c3csc(C=Cc4ccccc4)n3)c(=O)oc2cc1O | 0.86
O=C(CCl)NCCOc1ccc(Cl)cc1Cl | 1.041
Oc1ccc(-c2nc(-c3ccc4oc5ccc(-c6[nH]c(-c7ccc(O)cc7)nc6-c6ccccc6)cc5c4c3)c(-c3ccccc3)[nH]2)cc1 | 0.8182
O=C(NC1CCCCC1)C(c1cccs1)N(CCc1ccccc1)C(=O)c1ccco1 (configuration not stated) | 0.9135
CC(Oc1ccc(NC(=O)c2cccs2)cc1)C(=O)c1ccc(Cl)cc1 (configuration not stated) | 1
CCOc1ccc(CN2CCN(CC(O)COc3ccc(OCC(O)CN4CCN(Cc5ccc(OCC)cc5)CC4)cc3)CC2)cc1 (configuration not stated) | 0.9863
CCCCNc1nc(NC(C)(C)C)nc(NC(C)(C)C)n1 | 1.02
COc1ccc(CNC(=O)c2cc3c(=O)n4ccccc4nc3n(CCc3ccccc3)c2=N)cc1 | 0.8046
Brc1ccc(Nc2nc3ccccc3nc2Nc2ccc(Br)cc2)cc1 | 0.8871
O=C(NC1CCN(Cc2ccccc2)CC1)c1cc(C(=O)NC2CCN(Cc3ccccc3)CC2)cc(C(=O)NC2CCN(Cc3ccccc3)CC2)c1 | 1.119
COc1ccc(CCn2c(=N)c(C(=O)NCc3cccnc3)cc3c(=O)n4cccc(C)c4nc32)cc1 | 0.875
CC(=O)c1sc(NC(=O)Nc2ccc(C)cc2C)nc1C | 0.843
COc1ccc(-c2cn3c(C(=O)Nc4ccccc4Cl)c(-c4ccccc4)c4c3n2CCCC4)cc1 | 1.057
Cl.Cn1c(=O)n(C)c2cc(CNCCNc3ccnc4cc(Cl)ccc34)ccc21 | 1.09
Cc1cc(Nc2ccc(OCc3ccccc3)cc2)nc2cc(O)ccc12 | 0.8026
Cn1c(C(=O)c2cccc3ccccc23)nc2ccccc21 | 0.8689
CCN(CC)CCNc1ccnc2cc3ccccc3cc12.O=P(O)(O)O | 1.056
CCOc1ccc2nc(C)cc(Nc3ccc(N(C)C)cc3)c2c1.Cl | 1.135
COc1ccc(Nc2cc(C)nc(NCc3ccccc3)n2)cc1 | 0.7294
N=c1c2ccccc2nnn1-c1cccc(C(F)(F)F)c1 | 1.0625
COc1cc(-c2nc(-c3ccc(Sc4ccccc4)cc3)c(-c3ccccc3)[nH]2)cc(OC)c1O | 1.071
COc1ccc(C=C2SC(Nc3ccc(F)cc3)=NC2=O)c(OC)c1 | 0.9324
Oc1ccc2ccccc2c1CNc1nc2ccccc2[nH]1 | 0.578
O=C(Nc1ccc(-c2nc3ccccc3[nH]2)cc1)c1ccc(Cl)c(Cl)c1 | 0.9295

SMILES | Ratio
O=C1c2ccc3c4c(ccc(c24)C(=O)N1CCCCO)C(=O)N(CCCCO)C3=O | 1.047
O=C(Nc1ccc(-c2nc3cc(NC(=O)c4ccc(Cl)cc4)ccc3[nH]2)cc1)c1ccc(Cl)cc1 | 0.9036
OCCNc1nc(Nc2ccc(Cl)c(Cl)c2)nc2ccccc12 | 1.062
OC(Cn1nnc2ccccc21)Cn1c2ccc(Br)cc2c2cc(Br)ccc21 (configuration not stated) | 0.9531
Nc1ccc(-c2nc3cc(Oc4ccc(Oc5ccc6[nH]c(-c7ccc(N)cc7)nc6c5)cc4)ccc3[nH]2)cc1 | 1.143
Cc1ccccc1OCCSc1nc2ccc(NC(=O)c3cccs3)cc2s1 | 0.9467
CCOC(=O)c1cnc2ccc(OC)cc2c1Nc1ccc(N2CCN(C)CC2)cc1 | 0.9667
Cc1cc(N(C)C)nc(Nc2ccc(NC(=O)Nc3ccccc3)cc2)n1 | 1.017
COc1ccccc1C(=O)ON=C(N)Cc1cccc2ccccc12 | 1.06
COc1ccc(C(=O)C(CCC(CNC(C)(C)C)C(=O)c2ccc(OC)cc2)CNC(C)(C)C)cc1 (configuration not stated) | 0.9453
CCOc1cc2c(cc1OCC)C(c1cc(Cl)ccc1O)NCC2 (configuration not stated) | 1.123
COc1cc(C(=O)ON=C(N)Cc2cccc3ccccc23)cc(OC)c1OC | 1.265
CCN(CC)CCCNc1ccnc2cc3ccccc3cc12 | 0.9344
CN1C=C(c2ccc3ccccc3n2)C(c2c[nH]c3ccccc23)c2ccccc21 (configuration not stated) | 1.295
Oc1c(C(Nc2ccccn2)c2cccc(Oc3ccccc3)c2)ccc2cccnc12 (configuration not stated) | 0.7317
COc1cc(-c2nc(-c3ccccc3)c(-c3ccccc3)[nH]2)cc(OC)c1O | 1.031
O=C(Nc1ccc(-c2nc3cc4ccccc4cc3[nH]2)cc1)c1cccc(Br)c1 | 1.254
Cc1ccc(-c2nc3ccccc3o2)cc1NCc1cc(Cc2ccccc2)ccc1O | 1.167
Cc1ccc(Nc2nc(N)c3ccccc3n2)cc1Cl | 0.9206
OC(CNC1CCCCC1)Cn1c2ccc(I)cc2c2cc(I)ccc21 (configuration not stated) | 1.043
CCc1ccc(CNCC(O)c2ccccc2)cc1.Cl (configuration not stated) | 1.061
COc1ccc(C(O)(CCC(C)C)C(CN2CCOCC2)c2ccc(Cl)cc2)cc1.Cl (configuration not stated) | 1.06
Br.CCn1c2c(c(=N)c3c1CCC3)CCCC2 | 0.8374
CCCOCc1cc(CN2CCN(c3cccc(Cl)c3)CC2)c(O)c2ncccc12 | 0.9844
O=C(Cc1ccccc1)NC(c1ccc(Cl)cc1)c1c(O)ccc2ccccc12 (configuration not stated) | 0.873
COc1cc(CNCCc2ccc(Cl)cc2)cc(OC)c1O | 0.9459

SMILES | Ratio
Cc1ccc2c(C)nc(Nc3nc(C)cc(-c4ccccc4)n3)nc2c1 | 0.8649
c1ccc(CNc2nc(Nc3ccccc3)nc3ccccc23)cc1 | 1
CCOc1ccc(Nc2ccnc3cc(Cl)ccc23)cc1 | 0.8831
COc1ccc(C(=O)NC(c2ccccc2Cl)c2cc(Cl)c3cccnc3c2O)cc1 (configuration not stated) | 1.365
Cc1cccc(N2C(=O)C3C(C2=O)C2(c4ccccc4)C(=O)C3(c3ccccc3)C(c3ccc4c(c3)OCO4)=C2c2ccc3c(c2)OCO3)c1 (configuration not stated) | 0.9857
Oc1ccc(Br)cc1CN1CCN(Cc2ccc(Cl)cc2)CC1 | 0.9138
Cc1ccc(F)cc1NC(=O)c1cc(Cl)ccc1Nc1ccccc1 | 1.055
CCOc1ccc2nc(C)cc(Nc3ccc(Br)cc3)c2c1 | 1.038
COc1cc2c3cc1Oc1c(OC)c(OC)cc4c1C(Cc1ccc(O)c(c1)Oc1ccc(cc1)CC3N(C)CC2)N(C)CC4.Cl (configuration not stated) | 0.95
CCCCCCc1cc2cc(-c3nc4ccccc4[nH]3)c(=Nc3ccccc3C)oc2cc1O | 0.9685
CCCCCCC(O)(c1ccc(F)cc1)C(CN1CCOCC1)c1ccccc1.Cl (configuration not stated) | 0.9077
Br.Cc1ccc(C)c(-c2csc(Nc3ccc(C)c(C)c3)n2)c1 | 1.048
COc1cc(OC)cc(N2C(=O)N(Cc3ccc(C(C)(C)C)cc3)c3ccccc3S2(=O)=O)c1 | 0.9143
CCOc1c(Br)cc(C2C(C(=O)OC)=CN(C)C=C2C(=O)OC)cc1OC | 1.02
COc1ccc2sc(N(Cc3cccnc3)C(=O)c3ccc(C#N)cc3)nc2c1 | 0.8548
CC1CC2=C(CC1CNCCCN(C)C)C(C)(C)CCC2 (configuration not stated) | 0.931
CN(C)c1ccc(N=Cc2ccc(N3CCOCC3)cc2)cc1 | 0.9558
CCOC(=O)c1cnc2ccc(OC)cc2c1NCc1ccccc1 | 0.7154
CCCn1c(=N)c(C(=O)NC2CCCCC2)cc2c(=O)n3cccc(C)c3nc21 | 0.8
CCOC(=O)C1=CN(C)C=C(C(=O)OCC)C1c1cc(Br)c(OCC)c(OC)c1 | 1.052
CC(C)(C)c1ccc(C2CC3=Nc4ccccc4N(C(=O)c4ccccc4Cl)C(c4ccc(F)cc4)C3=C(O)C2)cc1 (configuration not stated) | 1
CN1CCN(c2nc(Nc3ccc(O)cc3)nc3ccccc23)CC1.Cl | 0.8636
CCOC(=O)c1c[nH]c2c(CC)cccc2c1=O | 0.8986
CCCCc1c(CCC)c(=N)c2ccccc2n1C.I | 0.7821
